According to PubChem BioAssay AID212 (DTP/NCI, 2004):
Several values for one entry are separate records, joined by “and”; a condition that tells them apart may be missing. Equal values may be shown once. Results filed as inconclusive are left out.

Test system: BDF1 mice, colon carcinoma 38 sc, T/C %
Test: NCI In Vivo Anticancer Drug Screen. Data for tumor model Colon Carcinoma 38 (subcutaneous) in B6D2F1 (BDF1) mice
Outline: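 Mice with transplanted tumors are treated with compound or vehicle. Survival or tumor size is then measured in both groups. The ratio of treated to control gives the reported figure.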

## NC1(C(=O)O)CCCC1
endpoint: median tumor weight (est.), dose: 12.5 mg/kg/injection, schedule: Q07DX003 (ip), vehicle: saline, higher = larger tumour
  T/C: 72 % of control
endpoint: median tumor weight (est.), dose: 25.0 mg/kg/injection, schedule: Q07DX003 (ip), vehicle: saline, higher = larger tumour
  T/C: 78 % of control
endpoint: median tumor weight (est.), dose: 50.0 mg/kg/injection, schedule: Q07DX003 (ip), vehicle: saline, higher = larger tumour
  T/C: 92 % of control
endpoint: median tumor weight (est.), dose: 100.0 mg/kg/injection, schedule: Q07DX003 (ip), vehicle: saline, higher = larger tumour
  T/C: 66 % of control
endpoint: median tumor weight (est.), dose: 200.0 mg/kg/injection, schedule: Q07DX003 (ip), vehicle: saline, higher = larger tumour
  T/C: 16 % of control

## O=c1cc(CCl)[nH]nc1CCl
endpoint: median tumor weight (est.), dose: 3.12 mg/kg/injection, schedule: Q07DX002 (ip), vehicle: saline with Tween-80, higher = larger tumour
  T/C: 119 % of control
endpoint: median tumor weight (est.), dose: 6.25 mg/kg/injection, schedule: Q07DX002 (ip), vehicle: saline with Tween-80, higher = larger tumour
  T/C: 91 % of control
endpoint: median tumor weight (est.), dose: 12.5 mg/kg/injection, schedule: Q07DX002 (ip), vehicle: saline with Tween-80, higher = larger tumour
  T/C: 93 % of control

## O=c1[nH]cnc2c1ncn2C1OC(CO)C(O)C1O (stereo not given)
endpoint: median survival time, dose: 250.0 mg/kg/injection, schedule: Q04DX004 (ip), vehicle: saline with Tween-80, higher = longer survival
  T/C: 108 % of control
endpoint: median survival time, dose: 250.0 mg/kg/injection, schedule: Q04DX004 (ip), vehicle: saline, higher = longer survival
  T/C: 107 % of control
endpoint: median survival time, dose: 500.0 mg/kg/injection, schedule: Q04DX004 (ip), vehicle: saline with Tween-80, higher = longer survival
  T/C: 121 % of control
endpoint: median survival time, dose: 500.0 mg/kg/injection, schedule: Q04DX004 (ip), vehicle: saline, higher = longer survival
  T/C: 120 % of control
endpoint: median survival time, dose: 1000.0 mg/kg/injection, schedule: Q04DX004 (ip), vehicle: saline with Tween-80, higher = longer survival
  T/C: 60 % of control
endpoint: median survival time, dose: 1000.0 mg/kg/injection, schedule: Q04DX004 (ip), vehicle: saline, higher = longer survival
  T/C: 58 % of control

## CCOC(C)C(/C=N/NC(N)=S)=NNC(N)=S (stereo not given)
endpoint: median tumor weight (est.), dose: 12.5 mg/kg/injection, schedule: Q07DX003 (ip), vehicle: saline with Tween-80, higher = larger tumour
  T/C: 111 % of control
endpoint: median tumor weight (est.), dose: 25.0 mg/kg/injection, schedule: Q07DX003 (ip), vehicle: saline with Tween-80, higher = larger tumour
  T/C: 61 % of control
endpoint: median tumor weight (est.), dose: 50.0 mg/kg/injection, schedule: Q07DX003 (ip), vehicle: saline with Tween-80, higher = larger tumour
  T/C: 99 % of control
endpoint: median tumor weight (est.), dose: 100.0 mg/kg/injection, schedule: Q07DX003 (ip), vehicle: saline with Tween-80, higher = larger tumour
  T/C: 155 % of control
endpoint: median tumor weight (est.), dose: 200.0 mg/kg/injection, schedule: Q07DX003 (ip), vehicle: saline with Tween-80, higher = larger tumour
  T/C: 73 % of control
endpoint: median tumor weight (est.), dose: 400.0 mg/kg/injection, schedule: Q07DX003 (ip), vehicle: saline with Tween-80, higher = larger tumour
  T/C: 66 % of control

## CC(C)CCCCCCCCCCCCC(=O)NCC(=O)NC1C(O)C(O)C(Nc2ncnc3nc[nH]c23)OC1C(O)CO (stereo not given)
endpoint: median tumor weight (est.), dose: 0.13 mg/kg/injection, schedule: Q07DX002 (ip), vehicle: saline, higher = larger tumour
  T/C: 110 % of control
endpoint: median tumor weight (est.), dose: 0.25 mg/kg/injection, schedule: Q07DX002 (ip), vehicle: saline, higher = larger tumour
  T/C: 114 % of control
endpoint: median tumor weight (est.), dose: 1.0 mg/kg/injection, schedule: Q07DX002 (ip), vehicle: saline, higher = larger tumour
  T/C: 71 % of control
endpoint: median tumor weight (est.), dose: 1.0 mg/kg/injection, schedule: Q07DX002 (ip), vehicle: suspension in saline, higher = larger tumour
  T/C: 114 % of control
endpoint: median tumor weight (est.), dose: 2.0 mg/kg/injection, schedule: Q07DX002 (ip), vehicle: saline, higher = larger tumour
  T/C: 87 % of control
endpoint: median tumor weight (est.), dose: 2.0 mg/kg/injection, schedule: Q07DX002 (ip), vehicle: suspension in saline, higher = larger tumour
  T/C: 113 % of control
endpoint: median tumor weight (est.), dose: 4.0 mg/kg/injection, schedule: Q07DX002 (ip), vehicle: saline, higher = larger tumour
  T/C: 76 % of control
endpoint: median tumor weight (est.), dose: 4.0 mg/kg/injection, schedule: Q07DX002 (ip), vehicle: suspension in saline, higher = larger tumour
  T/C: 42 % of control

## CC(C)CC(NC(=O)C(O)C(N)Cc1ccccc1)C(=O)O (stereo not given)
endpoint: median tumor weight (est.), dose: 10.0 micrograms/mouse/injection, schedule: Q10HX006 (ip), vehicle: saline, higher = larger tumour
  T/C: 85 % of control
endpoint: median tumor weight (est.), dose: 10.0 micrograms/mouse/injection, schedule: Q10HX010 (oral), vehicle: saline, higher = larger tumour
  T/C: 74 % of control
endpoint: median tumor weight (est.), dose: 100.0 micrograms/mouse/injection, schedule: Q10HX006 (ip), vehicle: saline, higher = larger tumour
  T/C: 50 % of control
endpoint: median tumor weight (est.), dose: 100.0 micrograms/mouse/injection, schedule: Q10HX010 (oral), vehicle: saline, higher = larger tumour
  T/C: 62 % of control

## OCCOCCN1CCN(CCCN2c3ccccc3Sc3ccc(C(F)(F)F)cc32)CC1
endpoint: median tumor weight (est.), dose: 12.5 mg/kg/injection, schedule: Q07DX002 (ip), vehicle: saline, higher = larger tumour
  T/C: 94 % of control
endpoint: median tumor weight (est.), dose: 50.0 mg/kg/injection, schedule: Q07DX002 (ip), vehicle: saline, higher = larger tumour
  T/C: 99 % of control

## C[C@H](CCC[C@H](C)OS(=O)(=O)c1ccccc1)OS(=O)(=O)c1ccccc1
endpoint: median tumor weight (est.), dose: 25.0 mg/kg/injection, schedule: Q07DX002 (ip), vehicle: saline with Tween-80, higher = larger tumour
  T/C: 89 % of control and 91 % of control
endpoint: median tumor weight (est.), dose: 50.0 mg/kg/injection, schedule: Q07DX002 (ip), vehicle: saline with Tween-80, higher = larger tumour
  T/C: 91 % of control and 98 % of control
endpoint: median tumor weight (est.), dose: 100.0 mg/kg/injection, schedule: Q07DX002 (ip), vehicle: saline with Tween-80, higher = larger tumour
  T/C: 82 % of control
endpoint: median tumor weight (est.), dose: 200.0 mg/kg/injection, schedule: Q07DX002 (ip), vehicle: saline with Tween-80, higher = larger tumour
  T/C: 120 % of control and 100 % of control
endpoint: median tumor weight (est.), dose: 400.0 mg/kg/injection, schedule: Q07DX002 (ip), vehicle: saline with Tween-80, higher = larger tumour
  T/C: 118 % of control
endpoint: median tumor weight (est.), dose: 800.0 mg/kg/injection, schedule: Q07DX002 (ip), vehicle: saline with Tween-80, higher = larger tumour
  T/C: 116 % of control

## Nc1nc2c(ncn2C2OC(CO)C(O)C2O)c(=O)[nH]1 (stereo not given)
endpoint: median tumor weight (est.), dose: 100.0 mg/kg/injection, schedule: Q07DX002 (ip), vehicle: suspension in saline, higher = larger tumour
  T/C: 100 % of control
endpoint: median tumor weight (est.), dose: 200.0 mg/kg/injection, schedule: Q07DX002 (ip), vehicle: suspension in saline, higher = larger tumour
  T/C: 117 % of control
endpoint: median tumor weight (est.), dose: 400.0 mg/kg/injection, schedule: Q07DX002 (ip), vehicle: suspension in saline, higher = larger tumour
  T/C: 94 % of control
endpoint: median tumor weight (est.), dose: 800.0 mg/kg/injection, schedule: Q07DX002 (ip), vehicle: suspension in saline, higher = larger tumour
  T/C: 105 % of control
endpoint: median tumor weight (est.), dose: 1600.0 mg/kg/injection, schedule: Q07DX002 (ip), vehicle: suspension in saline, higher = larger tumour
  T/C: 90 % of control
